Test results from patent US11964971B2, “Methods and compositions for modulating splicing” (Skyhawk Therapeutics, Inc., priority 2019, dated 2024).

How the values were obtained:
MDR1 (P-gp) = assay: MDCK-MDR1 permeability assay, blood-brain-barrier penetration potential; conditions: dog, MDCK-MDR1, pH 7.4, MDCK-MDR1 Efflux Ratio
[1] = system: MDR1-MDCK cell monolayers; conditions: dog, MDCK-MDR1, 120 min, 5 μM, pH 7.4
MDR1 = assay: in vitro; conditions: dog; for Papp A→B at 120 min, 5 μM: MDCK-MDR1, pH 7.4, MDCK-MDR1: Papp A-B (10^−6, cm/s); for Papp B→A at 120 min, 5 μM: MDCK-MDR1, pH 7.4, MDCK-MDR1: Papp B-A (10^−6, cm/s)
SMN protein = SMN protein assay (MSD) in SMA patient fibroblasts (GM03813); assay type: cell-based, human
Summary of the method: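 Absolute SMN protein measured by Mesoscale Discovery assay in lysates, calibrated per plate with SMN standards (1–19.5 μg/ml). Cells: GM03813 SMA fibroblasts, 7000/well, 48 h compound exposure at doses of 2.5 μM down to 0.6 nM.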

SMILES | efflux ratio at 120 min, 5 μM (MDR1 (P-gp)) | MDCK-MDR1: % Recov A-B (%) [1] [%] | MDCK-MDR1: % Recov B-A (%) [1] [%] | Papp A→B at 120 min, 5 μM (MDR1) [nm/s] | Papp B→A at 120 min, 5 μM (MDR1) [nm/s] | EC50 (SMN protein) [nM]
O=c1cc(-c2cc(O)c(-c3cnc(N(C4CC4)[C@@H]4CC5CC[C@H](N5)[C@@H]4F)cn3)cc2F)ccn1CF (single isomer, unassigned) [Compound 39E1] | 31 | 70 | 89 | 21 | 642 | 501 to 10000
Cn1ccc(-c2cc(O)c(-c3cnc(N(C4CC4)[C@H]4C[C@@H]5CCC(N5)[C@H]4F)cn3)cc2F)cc1=O (single isomer, unassigned) [Compound 38E2] | 33 | 82 | 82 | 17.5 | 577 | 501 to 10000
CN(c1cnc(-c2ccc(-c3cnn(CF)c3)cc2O)cn1)[C@H]1C[C@@H]2CCC(N2)[C@H]1F (single isomer, unassigned) [Compound 42E2] | 5 | 44 | 60 | 59.5 | 318 | 501 to 10000
Cn1cc(-c2ccc(-c3cnc(N(C4CC4)[C@H]4C[C@]5(C)CC[C@@](C)(N5)[C@H]4F)cn3)c(O)c2)cn1 [Compound 75E2, 2-(5-(cyclopropyl((1R,2S,3S,5S)-2-fluoro-1,5-dimethyl-8-azabicyclo[3.2.1]octan-3-yl)amino)pyrazin-2-yl)-5-(1-methyl-1H-pyrazol-4-yl)phenol] | 7 | 38 | 66 | 23.9 | 169 | 101 to 500
CN(c1cnc(-c2cc(F)c(-c3ccn(C)c(=O)c3)cc2O)cn1)[C@@H]1CC2CCC[C@H](N2)[C@@H]1F (single isomer, unassigned) [Compound 12E1] | 28 | 78 | 83 | 19.9 | 549 | 101 to 500
CN(C)C(=O)c1cc(O)c(-c2cnc(N(C)[C@H]3C[C@@H]4CCC(N4)[C@H]3F)cn2)cc1F (single isomer, unassigned) [Compound 14E2] | 65 | 87 | 88 | 9.1 | 591 | 501 to 10000
CN(c1cnc(-c2ccc(-c3cnn(C)c3)cc2O)cn1)[C@H]1C[C@@H]2COCC(N2)[C@H]1F (single isomer, unassigned) [Compound 73E2] | 5 | 51 | 74 | 93.4 | 491 | 501 to 10000
COc1cc(-c2ccc(-c3cnc(N(C4CC4)[C@H]4C[C@@H]5CCC(N5)[C@H]4F)cn3)c(O)c2)ncn1 (single isomer, unassigned) [Compound 56E2] | 2 | 14 | 48 | 21.2 | 45.5 | 101 to 500
Oc1cc(-c2cn[nH]c2)c(F)cc1-c1cnc(N(C2CC2)[C@H]2C[C@@H]3CCC(N3)[C@H]2F)cn1 (single isomer, unassigned) [Compound 41E2] | 6 | 54 | 72 | 60.9 | 344 | 101 to 500
CN(c1cnc(-c2ccc(-c3cnn(C)c3)cc2O)cn1)[C@@H]1C[C@H]2CCC[C@H](N2)[C@@H]1F [Compound 4E1, 2-(5-(((1S,2S,3R,5R)-2-fluoro-9-azabicyclo[3.3.1]nonan-3-yl)(methyl)amino)pyrazin-2-yl)-5-(1-methyl-1H-pyrazol-4-yl)phenol] | 6 | 44 | 66 | 48.9 | 314 | 51 to 100
COc1cc(-c2cc(O)c(-c3cnc(N(C)[C@@H]4CC5N[C@H](C4)CC5(F)F)cn3)cc2F)cnn1 (single isomer, unassigned) [Compound 67E2] | 4 | 60 | 68 | 143 | 554 | 501 to 10000
CN(c1cnc(-c2cc(F)c(-c3cnn(C)c3)cc2O)cn1)[C@@H]1CC2CC(F)(F)[C@@H](C1)N2 (single isomer, unassigned) [Compound 66E1] | 1 | 42 | 51 | 219 | 207 | 101 to 500
COc1cc(-c2cc(O)c(-c3cnc(N(C)[C@@H]4CC5CC(F)(F)[C@@H](C4)N5)cn3)cc2F)cnn1 (single isomer, unassigned) [Compound 67E1] | 2 | 62 | 74 | 222 | 425 | 501 to 10000
Cn1ccc(-c2ccc(-c3cnc(N(C4CC4)[C@H]4C[C@@H]5CCC(N5)[C@H]4F)cn3)c(O)c2)cc1=O (single isomer, unassigned) [Compound 53E2] | 29 | 71 | 69 | 16.1 | 461 | 501 to 10000
CN(c1cnc(-c2cc(F)c(-c3cn[nH]c3)cc2O)cn1)[C@@H]1CC2N[C@H](C1)CC2(F)F (single isomer, unassigned) [Compound 65E2] | 1 | 54 | 63 | 283 | 377 | 501 to 10000
COc1cc(-c2ccc(-c3cnc(N(C)[C@@H]4C[C@@]5(C)CCC[C@](C)(N5)[C@@H]4F)cn3)c(O)c2)cnn1 [Compound 24E1, 2-(5-(((1S,2R,3R,5R)-2-fluoro-1,5-dimethyl-9-azabicyclo[3.3.1]nonan-3-yl)(methyl)amino)pyrazin-2-yl)-5-(6-methoxypyridazin-4-yl)phenol] | 3 | 40 | 42 | 19.3 | 50.1 | 101 to 500
CN(c1cnc(-c2ccc(-c3cn[nH]c3)cc2O)cn1)[C@@H]1C[C@H]2CCCC(N2)[C@@H]1F (single isomer, unassigned) [Compound 6E1] | 9 | 76 | 69 | 45.8 | 423 | 501 to 10000
CNC(=O)/C=C/c1cc(O)c(-c2cnc(N(C)[C@@H]3C[C@@]4(C)CC[C@](C)(N4)[C@@H]3F)cn2)cc1F [Compound 61E1, (E)-3-(2-fluoro-4-(5-(((1S,2R,3R,5R)-2-fluoro-1,5-dimethyl-8-azabicyclo[3.2.1]octan-3-yl)(methyl)amino)pyrazin-2-yl)-5-hydroxyphenyl)-N-methylacrylamide] | 29 | 86 | 95 | 19.7 | 574 | 16 to 50
Oc1cc(-n2ccnn2)c(F)cc1-c1cnc(N(C2CC2)[C@@H]2CC3CC[C@H](N3)[C@@H]2F)cn1 (single isomer, unassigned) [Compound 11E1] | 7 | 74 | 83 | 52.5 | 359 | 501 to 10000
